Source: patent US20240360458A1, “TARGETED AND SLOW-RELEASE DRUG CONJUGATE COMPOSITION” (Centre for Eye and Vision Research Limited, priority 2023, published 2024)
Each block holds one substance with its values, some of them ahead of it.

How the values were obtained:
[1] = system: human corneal epithelial cells (HCECs); test: Flow cytometry binding of FAM-labelled aptamers to HCECs; settings: FAM-labelled free aptamer, room temperature, read-out: dissociation constant (Kd) of aptamer in HCECs
Protocol: Due to the large size of cornea tissue, it is difficult to do quantitative binding assays. Thus, the binding of FAM-labelled aptamer to human corneal epithelial cells (HCECs) was tested using flow cytometry and fluorescence microscopy. BSA and salmon DNA were added to the blocking buffer to reduce non-specific binding before the incubation with FAM-labelled aptamers.
(§1) The cells were then incubated with blocking buffer (1% BSA, 0.1 mg mL^−1 Salmon sperm DNA in PBS) for 30 min at room temperature. After washing with PBS under centrifugation, 3×10^5 cells were incubated with pre-heated Cornea-S1 or Cornea-S2 aptamers or aptamer liposomes at various concentrations in PBS for 30 min at room temperature. After incubation, the cells were rinsed three times with 500 μL of PBS and then resuspended in 200 μL of PBS. The fluorescence signal was analyzed with a NovoCyte Flow Cytometer (Agilent Technologies). The equilibrium dissociation constants (Kd) value of each aptamer or aptamer liposome was obtained by GraphPad Prism 9 according to […]

[2] = system: human corneal epithelial cells (HCECs); test: Flow cytometry binding affinity of aptamer CsA liposomes in HCECs; settings: liposome vs free aptamer
Protocol: The binding affinity of each aptamer liposome in HCECs was measured by flow cytometry. The cells were incubated with liposomes at room temperature, instead of in a 37° C. incubator, to reduce the internalization of liposomes by endocytosis. […] This apparent Kd is much lower than that observed in the free aptamers, for example, Cornea-S1 being 300-fold lower, and this was attributed to the stronger polyvalent binding increasing the avidity of the aptamer-functionalized liposomes.
as §1

[3] = system: cell surface protein of HCECs; test: Flow cytometry of aptamer binding to intact vs trypsin-treated HCECs; set-up: species or system human
Protocol: To understand the type of target, the HCECs were treated with trypsin, which degraded surface proteins.
as §1

[4] = system: human corneal epithelial cells (HCECs); test: Fluorescence microscopy of FAM-labelled aptamer binding in HCECs; settings: FAM-labelled DNA, 30 min incubation
Protocol: (§2) HCECs were seeded on glass bottom culture dishes at 10,000 cells/compartment for 24 h. To test the binding of the aptamer to cells, HCECs were incubated with FAM-labelled T30 DNA sequence (negative control), Cornea-S1, or Cornea-S2 aptamers for 30 min. […] HCECs cultured in the isosmotic medium were used as a control. After incubation, the cells were washed 2 times with ice-cold PBS and were then stained with 1 μg mL^−1 Hoechst 33342 in PBS for nucleus staining for 1 min at RT. Fluorescence images were captured at the mid-plane of cells (magnification: 400×) by Nikon Eclipse Ti Inverted Research Microscope. The excitation wavelengths of Hoechst, Rh-PE, and FAM were 361 nm, 560 nm, and 498 nm respectively.
Furthermore, the binding of FAM-labelled aptamers in HCECs was visualized under a fluorescence microscope.

[5] = system: HCECs in hyperosmolarity medium; test: Cellular uptake and retention of CsA liposomes in dry eye HCECs model; assay type: cell-based, human; settings: DED model
Protocol: To construct a dry eye disease (DED) cell model, HPV-immortalized human corneal epithelial cells (HCECs) (passages 6-10) were maintained in DMEM/F12 medium supplemented with 1% FBS and 1% penicillin/streptomycin at 37° C., 95% humidity, and 5% CO2. The cell medium was changed every 2 days. To establish an in vitro DED model, sodium chloride was added to the culture medium to increase the osmolarity of the medium by 200 mOsM.
as §2, with “The excitation wavelengths of Hoechst, Rh-PE, and FAM were 361 nm, 560 nm, and 498 nm respectively.” left out
The CsA-loaded liposomes were tested for cellular uptake and retention in a dry eye HCECs model induced by a high osmolarity medium. […] Additionally, liposome retention in cells was assessed by pretreating the cells with liposomes for 4 hours, followed by a 20-hour incubation period in liposome-free medium.

[6] = system: BAC-induced dry eye rabbit model; test: Corneal fluorescein staining in BAC-induced dry eye rabbits; assay type: in vivo, New Zealand White rabbits; settings: 4-week 0.1% BAC, then topical treatment twice daily up to 3 weeks
Protocol: (§3) A 4-week 0.1% BAC treatment could induce stable dry eye condition in rabbits and no severe corneal damage was observed. Thus, a 4-week 0.1% BAC installation followed by a 3-week topical treatment of Restasis® or liposomes was used in the present invention. Corneal fluorescein staining, tear breakup time and tear production were measured before and after BAC installation and weekly throughout the 3-week treatment period.
(§4) Ten male New Zealand White rabbits, weighing between 3 to 3.5 kg each, were procured from Charles River Laboratories. They were housed within the Centralized Animal Facility at the University of Waterloo, where they were subjected to a 12-hour cycle of alternating light and darkness. The temperature was maintained at 23° C.±2° C., with a relative humidity of 60%±10%. The entire experimental procedure was conducted by ethical guidelines and received approval from the Animal Care Committee under Application No. 44737. Upon a 2-week acclimation period, eight rabbits were chosen at random to induce stable dry eye disease. This was achieved through the topical application of 0.1% benzalkonium chloride (BAC) at a dosage of 20 μL per installation. This protocol was repeated twice a day (at 10 a.m. and 5 p.m.) for the subsequent 4 weeks. The remaining two rabbits constituted the control group and received PBS through a similar administration schedule. […]

[7] = system: unidentified trypsin-sensitive surface protein(s) of human corneal epithelial cells (HCECs) (Homo sapiens); test: flow
[8] = system: BAC-induced dry eye rabbit model; test: Tear break-up time (TBUT) in BAC-induced dry eye rabbits; assay type: in vivo, New Zealand White rabbits; settings: after 4 weeks of 0.1% BAC installation
Protocol: as §3
as §4, with “disease.” for “disease. This was achieved through the topical application of 0.1% benzalkonium chloride (BAC) at a dosage of 20 μL per installation. This protocol was repeated twice a day (at 10 a.m. and 5 p.m.) for the subsequent 4 weeks. The remaining two rabbits constituted the control group and received PBS through a similar administration schedule.”
Rabbits were sedated by the aforementioned procedure. TBUT was evaluated utilizing a handheld EasyTear® VIEW+ Tearscope with a grid pattern, in conjunction with the S4 OPTIK HR Elite Mega Digital Vision system. […] This measurement was repeated thrice to ensure accuracy, and an average value was calculated for analysis.

[9] = system: BAC-induced dry eye rabbit model; test: Tear production (Schirmer tear strips) in BAC-induced dry eye rabbits; assay type: in vivo, New Zealand White rabbits; settings: after 4-week 0.1% BAC installation
Protocol: as §3
as §4, with “disease.” for “disease. This was achieved through the topical application of 0.1% benzalkonium chloride (BAC) at a dosage of 20 μL per installation. This protocol was repeated twice a day (at 10 a.m. and 5 p.m.) for the subsequent 4 weeks. The remaining two rabbits constituted the control group and received PBS through a similar administration schedule.”
The aqueous tear production was measured with Schirmer Tear Strips (SPORTS WORLD VISION). The strips were placed inside the margin of the nictitating membrane of the lower eyelid of the rabbit for 5 min and the wetting length of the strip was measured as an indication of tear production.

[10] = 3'-FAM, whole-cell apparent Kd, PBS, room temperature, 30 min, trypsin treatment lowers binding

Substance: Cornea-S1: DNA aptamer from cornea tissue-SELEX, family 1: GACGACGGCAAGGGGAAAGTGGTCGTAATCACGACGGTCGTC (DNA, backbone not given here; further chemistry not fully specified)
Kd [1]: 362 nM
apparent Kd of liposome lower than that of the free aptamer [2]: 300 fold
FAM signals in trypsin-treated cells compared with intact cells [3]: significantly lower FAM signals
FAM signals in HCECs under fluorescence microscope ([4]; listed as Conrea-S1): intensive FAM signals
FAM signals in HCECs under fluorescence microscope ([4]; listed as Corena-S1): observably higher than Conrea-S2 and S2.2 aptamer
extended retention of liposomes [5]: up to 24 hours
corneal fluorescein staining / corneal integrity [6]: markedly diminished to residual staining or isolated dots

Substance: Cornea-S2: DNA aptamer from cornea tissue-SELEX, family 2: GACGACTTATGCTTGGGACCTGATCCGGACTACGGTGTCGTC (DNA, backbone not given here; further chemistry not fully specified)
Kd [1]: 174 nM
FAM signals in trypsin-treated cells compared with intact cells [3]: significantly lower FAM signals
FAM signals in HCECs under fluorescence microscope [4]: intensive FAM signals
extended retention of liposomes [5]: up to 24 hours

Substance: GACGACGGCAAGGGGAAAGTGGTCGTAATCACGACGGTCGTC [FAM-Cornea-S1]
Kd [7, 10]: 362 nM

Substance: GACGACGGCAAGGGGAAAGTGGTCGTAATCACGACGGTCGTCTTTTT [Cornea-S1-chol liposome]
Kd ([7]; 3'-cholesterol, inserted in CsA liposome (about 690 strands per liposome), polyvalent liposome on whole cells, PBS, room temperature): 1.2 nM

Substance: GACGACTTATGCTTGGGACCTGATCCGGACTACGGTGTCGTC [FAM-Cornea-S2]
Kd [7, 10]: 174 nM

Substance: GACGACTTATGCTTGGGACCTGATCCGGACTACGGTGTCGTCTTTTT [Cornea-S2-chol liposome]
Kd ([7]; 3'-cholesterol, inserted in CsA liposome (about 690 strands per liposome), polyvalent liposome on whole cells, p92 gives 15.1 nM): 15 nM

reduction in TBUT compared to baseline [8]: 60-70%
decrease in tear production [9]: 25-35%
Substance: benzalkonium chloride [BAC]
